These results are taken from patent US9282743B2, “Chemical compounds” (Syngenta Participations AG, priority 2011, dated 2016).

Type in all cases: in vivo
Data set [1] relates to Echinochloa crus-galli (ECHCG). Briefly: Example B6: post application on weeds, ECHCG. The note with it: 312 h, after 13 days, 100 = total damage, 0 = no damage, read-out: ECHCG damage to plant. The protocol: (§1) Lolium perenne (LOLPE), Alopecurus myosuroides (ALOMY), Echinochloa crus-galli (ECHCG) and Avena fatua (AVEFA). Activity Against Weeds Seeds of a variety of test species were sown in standard soil in pots. After cultivation for 8 days under controlled conditions in a glasshouse (at 24/16° C., day/night; 14 hours light; 65% humidity), the plants were sprayed with an aqueous spray solution derived from the formulation of the technical active ingredient in acetone/water (50:50) solution containing 0.5% Tween 20 (polyoxyethelyene sorbitan monolaurate, CAS RN 9005-64-5). The test plants were then grown in a glasshouse under controlled conditions in a glasshouse (at 24/16° C., day/night; 14 hours light; 65% humidity) and watered twice daily. After 13 days, the test was evaluated (100=total damage to plant; 0=no damage to plant).

The test system of data set [2] is Echinochloa crus-galli (ECHCG). Briefly: Example B7: pre application on weeds, ECHCG. The settings on record: 312 h, pre-emergence spray one day after sowing, evaluated after 13 days, read-out: Pre application on weeds, ECHCG (100=total damage to plant; 0=no damage to plant). The protocol:
as §1, with “one day” for “8 days”

Data set [3] concerns Winter wheat (TRZAW). Briefly: Example B8: post application on wheat, with and without safener cloquintocet-mexyl. The settings on record: after 13 days, 100 = total damage, 0 = no damage. Here is the method: Application with Safener (Cloquintocet-Mexyl) Winter wheat seeds with a seed treatment of cloquintocet-mexyl applied at a rate of 0.5 g/kg seeds were sown in standard soil in pots. After cultivation for 8 days under controlled conditions in a glasshouse (at 24/16° C., day/night; 14 hours light; 65% humidity), the plants were sprayed with an aqueous spray solution derived from the formulation of the technical active ingredient in acetone/water (50:50) solution containing 0.5% Tween 20 (polyoxyethelyene sorbitan monolaurate, CAS RN 9005-64-5). The test plants were then grown in a glasshouse under controlled conditions in a glasshouse (at 24/16° C., day/night; 14 hours light; 65% humidity) and watered twice daily. After 13 days, the test was evaluated (100=total damage to plant; 0=no damage to plant).

The subject of data set [4] is Alopecurus myosuroides (ALOMY). Briefly: Example B6: post application on weeds, ALOMY. The note with it: 312 h, after 13 days, 100 = total damage, 0 = no damage, read-out: ALOMY damage to plant. The protocol: as §1
For data set [5], the system named is Avena fatua (AVEFA). Nature of the data set: Example B6: post application on weeds, AVEFA. The note with it: 312 h, after 13 days, 100 = total damage, 0 = no damage, read-out: AVEFA damage to plant. The protocol:
as §1

For data set [6], the system named is Alopecurus myosuroides (ALOMY). Nature of the data set: Example B7: pre application on weeds, ALOMY. The settings on record: 312 h, pre-emergence spray one day after sowing, evaluated after 13 days, read-out: Pre application on weeds, ALOMY (100=total damage to plant; 0=no damage to plant). The protocol:
as §1, with “one day” for “8 days”

The test system of data set [7] is Lolium perenne (LOLPE). Nature of the data set: Example B6: post application on weeds, LOLPE. The note with it: 312 h, after 13 days, 100 = total damage, 0 = no damage, read-out: LOLPE damage to plant. The protocol: as §1
The test system of data set [8] is Avena fatua (AVEFA). Briefly: Example B7: pre application on weeds, AVEFA. The note with it: 312 h, pre-emergence spray one day after sowing, evaluated after 13 days, read-out: Pre application on weeds, AVEFA (100=total damage to plant; 0=no damage to plant). Here is the method: as §1, with “one day” for “8 days”
Data set [9] relates to Lolium perenne (LOLPE). Briefly: Example B7: pre application on weeds, LOLPE. The note with it: 312 h, pre-emergence spray one day after sowing, evaluated after 13 days, read-out: Pre application on weeds, LOLPE (100=total damage to plant; 0=no damage to plant). Here is the method: as §1, with “one day” for “8 days”
[10] abbreviates: 250 g/ha + 0.5 g/kg seeds cloquintocet-mexyl.

For `CCOC(=O)Oc1c(-c2c(C)cc(C)cc2OC)c(=O)n2n1CCN(OC)CC2` [Compound P1.9], the pest or weed control at 250 g/ha in data set [1] worked out at 100%; in data set [2], 70%; in [4] it was 90%; in data set [5] it was 90%; in [6] it was 70%; in data set [7] it was 90%. The pest or weed control at 250 g/ha in data set [8] and in data set [9] was 80% in each case. For the same molecule, the “TRZAW damage to plant” value turned out to be 60 in data set [3] (setting [10]) and 80 in data set [3] (250 g/ha, without safener).
`CCOC(=O)Oc1c(-c2c(C)cc(Br)cc2C)c(=O)n2n1CCN(OC)CC2` [Compound P1.10]: the pest or weed control at 250 g/ha in data set [1] turned out to be 60%; in data set [2] it was 60%; in data set [4], 80%; in data set [5], 70%; in [6], 70%; in [7] it was 70%. The pest or weed control at 250 g/ha is 40% in data set [8] and 70% in data set [9]. Also, the “TRZAW damage to plant” value in data set [3] (setting [10]) is listed as 30; in [3] (250 g/ha, without safener), 60.
With `CCOC(=O)Oc1c(-c2c(Cl)cc(C)cc2Br)c(=O)n2n1CCN(OC)CC2` [Compound P1.11], the pest or weed control at 250 g/ha in data set [1] was 60%; in data set [2], 80%; in [4], 80%; in data set [5] it was 70%; in data set [6] it was 100%; in data set [7], 80%. Also, the pest or weed control at 250 g/ha is 70% in data set [8] and 90% in data set [9]. The “TRZAW damage to plant” value in data set [3] (setting [10]) came to 10; in [3] (250 g/ha, without safener), 60.
As for `CCOC(=O)Oc1c(-c2c(C)cc(Cl)cc2Br)c(=O)n2n1CCN(OC)CC2` [Compound P1.12], the pest or weed control at 250 g/ha turned out to be 50% in data set [1]; 0% in data set [2]; 80% in data set [4]; 70% in [5]; 90% in [6]; 70% in data set [7]. Besides, the pest or weed control at 250 g/ha in data set [8] came to 10%; in data set [9] it was 100%. Also, the “TRZAW damage to plant” value turned out to be 30 in [3] (setting [10]) and 60 in [3] (250 g/ha, without safener).
On to `CON1CCN2C(=O)C(c3c(C)cc(C)cc3C)C(=O)N2CC1` [Compound P2.1, 3-Methoxy-8-(2,4,6-trimethyl-phenyl)-tetrahydro-pyrazolo[1,2-a][1,2,5]triazepine-7,9-dione], for which the pest or weed control at 250 g/ha in [1] was found to be 100%; in data set [2], 100%; in [4], 90%; in data set [5] it was 90%; in data set [6] it was 100%; in [7], 90%. Also, the pest or weed control at 250 g/ha in [8] came to 90%; in data set [9], 100%. In addition, the “TRZAW damage to plant” value in data set [3] (setting [10]) came to 30; in data set [3] (250 g/ha, without safener), 60.
For `CON1CCN2C(=O)C(c3c(C)cc(Cl)cc3C)C(=O)N2CC1` [Compound P2.2, 8-(4-Chloro-2,6-dimethyl-phenyl)-3-methoxy-tetrahydro-pyrazolo[1,2-a][1,2,5]triazepine-7,9-dione], the pest or weed control at 250 g/ha was 60% in [1]; 70% in data set [2]; 70% in data set [4]; 50% in [5]; 80% in [6]; 70% in data set [7]. In addition, the pest or weed control at 250 g/ha in [8] stood at 50%; in [9], 80%. In addition, the “TRZAW damage to plant” value was determined as 20 in data set [3] (setting [10]) and 30 in data set [3] (250 g/ha, without safener).
Take `C#Cc1cc(C)cc(C)c1C1C(=O)N2CCN(OC)CCN2C1=O` [Compound P2.5]: the pest or weed control at 250 g/ha stood at 100% in data set [1]; 90% in data set [2]; 90% in data set [4]; 100% in [5]; 100% in data set [6]; 100% in [7]. Moreover, the pest or weed control at 250 g/ha in data set [8] and in [9] was 100% each time. The “TRZAW damage to plant” value in [3] (setting [10]) is recorded as 10; in data set [3] (250 g/ha, without safener), 80.
Turning to `C#Cc1cc(C)c(C2C(=O)N3CCN(OC)CCN3C2=O)c(C)c1` [Compound P2.8], the pest or weed control at 250 g/ha came to 60% in [1]; 10% in data set [2]; 60% in data set [4]; 40% in data set [5]; 80% in [6]; 70% in [7]. The pest or weed control at 250 g/ha in data set [8] was determined as 10%; in [9], 60%. Moreover, the “TRZAW damage to plant” value in data set [3] (setting [10]) is listed as 10; in [3] (250 g/ha, without safener), 40.
Consider `CON1CCN2C(=O)C(c3c(C)cc(Br)cc3C)C(=O)N2CC1` [Compound P2.9], for which the pest or weed control at 250 g/ha in data set [1] worked out at 60%; in data set [2], 40%; in [4] it was 60%; in data set [5], 60%; in data set [6], 80%; in data set [7], 70%. Also, the pest or weed control at 250 g/ha in data set [8] came out at 20%; in [9] it was 80%. Moreover, the “TRZAW damage to plant” value in data set [3] (setting [10]) worked out at 20; in [3] (250 g/ha, without safener) it was 60.
`CON1CCN2C(=O)C(c3c(Cl)cc(C)cc3Br)C(=O)N2CC1` [Compound P2.10]: the pest or weed control at 250 g/ha in data set [1] was 80%; in data set [2], 100%; in [4], 80%; in [5] it was 70%; in [6], 100%; in data set [7], 90%. The pest or weed control at 250 g/ha in [8] is 60%; in [9] it was 100%. Further, the “TRZAW damage to plant” value was 20 in data set [3] (setting [10]) and 70 in data set [3] (250 g/ha, without safener).
On to `CON1CCN2C(=O)C(c3c(C)cc(Cl)cc3Br)C(=O)N2CC1` [Compound P2.11], for which the pest or weed control at 250 g/ha was 60% in data set [1]; 70% in [2]; 70% in [4]; 60% in [5]; 80% in data set [6]; 70% in data set [7]. Besides, the pest or weed control at 250 g/ha in [8] was found to be 50%; in data set [9], 80%. The “TRZAW damage to plant” value in data set [3] (setting [10]) came out at 20; in data set [3] (250 g/ha, without safener), 50.
